Peptide text beside a SMILES is read from it. * marks the point of attachment. X1 = CC(=O)N[C@@H]1[C@@H](O)[C@H](O[C@@H]2O[C@H](CO)[C@@H](O[C@@H]3O[C@H](CO[C@H]4O[C@H](CO)[C@@H](O)[C@H](O)[C@@H]4O[C@@H]4O[C@H](CO)[C@@H](O[C@@H]5O[C@H](CO[C@]6(C(=O)O)C[C@H](O)[C@@H](NC(C)=O)[C@H]([C@H](O)[C@H](O)CO)O6)[C@H](O)[C@H](O)[C@H]5O)[C@H](O)[C@H]4NC(C)=O)[C@@H](O)[C@H](O[C@H]4O[C@H](CO)[C@@H](O)[C@H](O)[C@@H]4O[C@@H]4O[C@H](CO)[C@@H](O[C@@H]5O[C@H](CO[C@]6(C(=O)O)C[C@H](O)[C@@H](NC(C)=O)[C@H]([C@H](O)[C@H](O)CO)O6)[C@H](O)[C@H](O)[C@H]5O)[C@H](O)[C@H]4NC(C)=O)[C@@H]3O)[C@H](O)[C@H]2NC(C)=O)[C@@H](CO)O[C@H]1NC(=O)C*
Tests used:
[1] = test system: C57BL/6JJcl mice; experiment: Test Example 7: Oral Glucose Tolerance Test (OGTT); format: in vivo
Protocol: After 30 minutes, a glucose solution was orally administered at a dose of 1 mg/g. Blood was collected from the orbits before the glucose administration and 30 minutes, 60 minutes and 120 minutes after the glucose administration. Blood-sugar levels were measured using ACCU-CHEK Aviva (Roche Diagnostics).
After the oral administration of the glucose solution to the mice fasted overnight, blood was collected over time, and blood-sugar levels were measured.
The correlation between the oligosaccharide chain structure and the activity was studied in mouse OGTT.

[2] = test system: db/db (BKS.Cg-+Lepr db/+Lepr db/Jcl) mice; experiment: Test Example 8: effect of lowering blood-sugar levels in diabetes model mice; format: in vivo; conditions: 9 nmol/kg intraperitoneal
Protocol: The oligosaccharide chain added GLP-1 peptide prepared in Example 2, 3, 4, 21 or 23 or the GLP-1 prepared in Comparative Example 1 in a PBS solution (9 nmol/10 ml) was intraperitoneally administered at a dose of 10 ml/kg to BKS.Cg−+Lepr^db/+Lepr^db/Jcl mice (10 week old, male). Blood was collected from the orbits before the compound administration and 30 minutes, 60 minutes, 120 minutes, 180 minutes and 300 minutes after the compound administration. Blood-sugar levels were measured using ACCU-CHEK Aviva (Roche Diagnostics).
The db/db (BKS.Cg−+Lepr^db/+Lepr^db/Jcl) mice serving as diabetes model mice have a mutation in a receptor of leptin which is anorexigenic/energy metabolism-accelerating hormone and develops conditions such as obesity or hyperglycemia.
Blood-sugar levels were measured over time, and their effects of lowering blood-sugar levels were compared with that of the GLP-1 without oligosaccharide chain addition of Comparative Example 1.

[3] = 9 nmol/kg intraperitoneal 30 minutes before glucose 1 mg/g oral

For `CC[C@H](C)[C@H](NC(=O)[C@H](Cc1ccccc1)NC(=O)[C@H](CCC(=O)O)NC(=O)[C@H](CSCC(=O)N[C@@H]1O[C@H](CO)[C@@H](O[C@@H]2O[C@H](CO)[C@@H](O[C@@H]3O[C@H](CO[C@H]4O[C@H](CO)[C@@H](O)[C@H](O)[C@@H]4O[C@@H]4O[C@H](CO)[C@@H](O[C@@H]5O[C@H](CO[C@]6(C(=O)O)C[C@H](O)[C@@H](NC(C)=O)[C@H]([C@H](O)[C@H](O)CO)O6)[C@H](O)[C@H](O)[C@H]5O)[C@H](O)[C@H]4NC(C)=O)[C@@H](O)[C@H](O[C@H]4O[C@H](CO)[C@@H](O)[C@H](O)[C@@H]4O[C@@H]4O[C@H](CO)[C@@H](O[C@@H]5O[C@H](CO[C@]6(C(=O)O)C[C@H](O)[C@@H](NC(C)=O)[C@H]([C@H](O)[C@H](O)CO)O6)[C@H](O)[C@H](O)[C@H]5O)[C@H](O)[C@H]4NC(C)=O)[C@@H]3O)[C@H](O)[C@H]2NC(C)=O)[C@H](O)[C@H]1NC(C)=O)NC(=O)[C@H](C)NC(=O)[C@H](C)NC(=O)[C@H](CCC(N)=O)NC(=O)CNC(=O)[C@H](CCC(=O)O)NC(=O)[C@H](CC(C)C)NC(=O)[C@H](Cc1ccc(O)cc1)NC(=O)[C@H](CO)NC(=O)[C@H](CO)NC(=O)[C@@H](NC(=O)[C@H](CC(=O)O)NC(=O)[C@H](CO)NC(=O)[C@@H](NC(=O)[C@H](Cc1ccccc1)NC(=O)[C@@H](NC(=O)CNC(=O)[C@H](CCC(=O)O)NC(=O)[C@H](C)NC(=O)[C@@H](N)Cc1c[nH]cn1)[C@@H](C)O)[C@@H](C)O)C(C)C)C(=O)N[C@@H](C)C(=O)N[C@@H](Cc1c[nH]c2ccccc12)C(=O)N[C@@H](CC(C)C)C(=O)N[C@H](C(=O)N[C@@H](CCCCN)C(=O)NCC(=O)N[C@@H](CCCNC(=N)N)C(=O)NCC(=O)O)C(C)C` [Example 3, 26Cys GLP-1-disialo], the “efficacy relative to 30Cys GLP-1-disialo and 36Cys GLP-1-disialo at the same dose in OGTT” value ([1]; 0.9 nmol/kg intraperitoneal) was “about ½”, the “effect of suppressing rise in blood-sugar levels in OGTT” value (from here on “effect of suppressing rise”) [1, 3] was “strong effect of suppressing rise in blood-sugar levels” and the “dose dependence of activity of suppressing rise in blood-sugar levels in OGTT” value ([1]; doses 0.9 nmol/kg and 0.09 nmol/kg intraperitoneal) was “dose-dependent activity of suppressing rise in blood-sugar levels”. The “effect of lowering blood-sugar levels in db/db mice” value ([2]; 10-week-old male mice) was “strong effect of lowering blood-sugar levels” and the “durability of effect of lowering blood-sugar levels in db/db mice” value ([2]; up to 300 minutes) was “effects of lowering blood-sugar levels were slightly weakened over time”.

With `CC[C@H](C)[C@H](NC(=O)[C@H](Cc1ccccc1)NC(=O)[C@H](CCC(=O)O)NC(=O)[C@H](CCCCN)NC(=O)[C@H](C)NC(=O)[C@H](C)NC(=O)[C@H](CCC(N)=O)NC(=O)CNC(=O)[C@H](CCC(=O)O)NC(=O)[C@H](CC(C)C)NC(=O)[C@H](Cc1ccc(O)cc1)NC(=O)[C@H](CSCC(=O)N[C@@H]1O[C@H](CO)[C@@H](O[C@@H]2O[C@H](CO)[C@@H](O[C@@H]3O[C@H](CO[C@H]4O[C@H](CO)[C@@H](O)[C@H](O)[C@@H]4O[C@@H]4O[C@H](CO)[C@@H](O[C@@H]5O[C@H](CO[C@]6(C(=O)O)C[C@H](O)[C@@H](NC(C)=O)[C@H]([C@H](O)[C@H](O)CO)O6)[C@H](O)[C@H](O)[C@H]5O)[C@H](O)[C@H]4NC(C)=O)[C@@H](O)[C@H](O[C@H]4O[C@H](CO)[C@@H](O)[C@H](O)[C@@H]4O[C@@H]4O[C@H](CO)[C@@H](O[C@@H]5O[C@H](CO[C@]6(C(=O)O)C[C@H](O)[C@@H](NC(C)=O)[C@H]([C@H](O)[C@H](O)CO)O6)[C@H](O)[C@H](O)[C@H]5O)[C@H](O)[C@H]4NC(C)=O)[C@@H]3O)[C@H](O)[C@H]2NC(C)=O)[C@H](O)[C@H]1NC(C)=O)NC(=O)[C@H](CO)NC(=O)[C@@H](NC(=O)[C@H](CC(=O)O)NC(=O)[C@H](CO)NC(=O)[C@@H](NC(=O)[C@H](Cc1ccccc1)NC(=O)[C@@H](NC(=O)CNC(=O)[C@H](CCC(=O)O)NC(=O)[C@H](C)NC(=O)[C@@H](N)Cc1c[nH]cn1)[C@@H](C)O)[C@@H](C)O)C(C)C)C(=O)N[C@@H](C)C(=O)N[C@@H](Cc1c[nH]c2ccccc12)C(=O)N[C@@H](CC(C)C)C(=O)N[C@H](C(=O)N[C@@H](CCCCN)C(=O)NCC(=O)N[C@@H](CCCNC(=N)N)C(=O)NCC(=O)O)C(C)C` [Example 1, 18Cys GLP-1-disialo] (H-HAEGTFTSDVSC(X1)YLEGQAAKEFIAWLVKGRG-OH) the “effect of suppressing rise” value [1, 3] was “strong effect of suppressing rise in blood-sugar levels”.

`CC[C@H](C)[C@H](NC(=O)[C@H](Cc1ccccc1)NC(=O)[C@H](CCC(=O)O)NC(=O)[C@H](CCCCN)NC(=O)[C@H](C)NC(=O)[C@H](C)NC(=O)[C@H](CCC(N)=O)NC(=O)CNC(=O)[C@H](CCC(=O)O)NC(=O)[C@H](CSCC(=O)N[C@@H]1O[C@H](CO)[C@@H](O[C@@H]2O[C@H](CO)[C@@H](O[C@@H]3O[C@H](CO[C@H]4O[C@H](CO)[C@@H](O)[C@H](O)[C@@H]4O[C@@H]4O[C@H](CO)[C@@H](O[C@@H]5O[C@H](CO[C@]6(C(=O)O)C[C@H](O)[C@@H](NC(C)=O)[C@H]([C@H](O)[C@H](O)CO)O6)[C@H](O)[C@H](O)[C@H]5O)[C@H](O)[C@H]4NC(C)=O)[C@@H](O)[C@H](O[C@H]4O[C@H](CO)[C@@H](O)[C@H](O)[C@@H]4O[C@@H]4O[C@H](CO)[C@@H](O[C@@H]5O[C@H](CO[C@]6(C(=O)O)C[C@H](O)[C@@H](NC(C)=O)[C@H]([C@H](O)[C@H](O)CO)O6)[C@H](O)[C@H](O)[C@H]5O)[C@H](O)[C@H]4NC(C)=O)[C@@H]3O)[C@H](O)[C@H]2NC(C)=O)[C@H](O)[C@H]1NC(C)=O)NC(=O)[C@H](Cc1ccc(O)cc1)NC(=O)[C@H](CO)NC(=O)[C@H](CO)NC(=O)[C@@H](NC(=O)[C@H](CC(=O)O)NC(=O)[C@H](CO)NC(=O)[C@@H](NC(=O)[C@H](Cc1ccccc1)NC(=O)[C@@H](NC(=O)CNC(=O)[C@H](CCC(=O)O)NC(=O)[C@H](C)NC(=O)[C@@H](N)Cc1c[nH]cn1)[C@@H](C)O)[C@@H](C)O)C(C)C)C(=O)N[C@@H](C)C(=O)N[C@@H](Cc1c[nH]c2ccccc12)C(=O)N[C@@H](CC(C)C)C(=O)N[C@H](C(=O)N[C@@H](CCCCN)C(=O)NCC(=O)N[C@@H](CCCNC(=N)N)C(=O)NCC(=O)O)C(C)C` [Example 16, 20Cys GLP-1-disialo] (H-HAEGTFTSDVSSYC(X1)EGQAAKEFIAWLVKGRG-OH) was tested, and the “effect of suppressing rise” value [1, 3] was “strong effect of suppressing rise in blood-sugar levels”.

`CC[C@H](C)[C@H](NC(=O)[C@H](Cc1ccccc1)NC(=O)[C@H](CCC(=O)O)NC(=O)[C@H](CCCCN)NC(=O)[C@H](C)NC(=O)[C@H](C)NC(=O)[C@H](CCC(N)=O)NC(=O)CNC(=O)[C@H](CCC(=O)O)NC(=O)[C@H](CC(C)C)NC(=O)[C@H](Cc1ccc(O)cc1)NC(=O)[C@H](CSCC(=O)N[C@@H]1O[C@H](CO)[C@@H](O[C@@H]2O[C@H](CO)[C@@H](O[C@@H]3O[C@H](CO[C@H]4O[C@H](CO)[C@@H](O)[C@H](O)[C@@H]4O[C@@H]4O[C@H](CO)[C@@H](O[C@@H]5O[C@H](CO[C@]6(C(=O)O)C[C@H](O)[C@@H](NC(C)=O)[C@H]([C@H](O)[C@H](O)CO)O6)[C@H](O)[C@H](O)[C@H]5O)[C@H](O)[C@H]4NC(C)=O)[C@@H](O)[C@H](O[C@H]4O[C@H](CO)[C@@H](O)[C@H](O)[C@@H]4O[C@@H]4O[C@H](CO)[C@@H](O[C@@H]5O[C@H](CO[C@]6(C(=O)O)C[C@H](O)[C@@H](NC(C)=O)[C@H]([C@H](O)[C@H](O)CO)O6)[C@H](O)[C@H](O)[C@H]5O)[C@H](O)[C@H]4NC(C)=O)[C@@H]3O)[C@H](O)[C@H]2NC(C)=O)[C@H](O)[C@H]1NC(C)=O)NC(=O)[C@H](CO)NC(=O)[C@@H](NC(=O)[C@H](CC(=O)O)NC(=O)[C@H](CO)NC(=O)[C@@H](NC(=O)[C@H](Cc1ccccc1)NC(=O)[C@@H](NC(=O)CNC(=O)[C@H](CCC(=O)O)NC(=O)[C@H](C)NC(=O)[C@@H](N)Cc1c[nH]cn1)[C@@H](C)O)[C@@H](C)O)C(C)C)C(=O)N[C@@H](C)C(=O)N[C@@H](Cc1c[nH]c2ccccc12)C(=O)N[C@@H](CC(C)C)C(=O)N[C@H](C(=O)N[C@@H](CCCCN)C(=O)NCC(=O)N[C@@H](CSCC(=O)N[C@@H]1O[C@H](CO)[C@@H](O[C@@H]2O[C@H](CO)[C@@H](O[C@@H]3O[C@H](CO[C@H]4O[C@H](CO)[C@@H](O)[C@H](O)[C@@H]4O[C@@H]4O[C@H](CO)[C@@H](O[C@@H]5O[C@H](CO[C@]6(C(=O)O)C[C@H](O)[C@@H](NC(C)=O)[C@H]([C@H](O)[C@H](O)CO)O6)[C@H](O)[C@H](O)[C@H]5O)[C@H](O)[C@H]4NC(C)=O)[C@@H](O)[C@H](O[C@H]4O[C@H](CO)[C@@H](O)[C@H](O)[C@@H]4O[C@@H]4O[C@H](CO)[C@@H](O[C@@H]5O[C@H](CO[C@]6(C(=O)O)C[C@H](O)[C@@H](NC(C)=O)[C@H]([C@H](O)[C@H](O)CO)O6)[C@H](O)[C@H](O)[C@H]5O)[C@H](O)[C@H]4NC(C)=O)[C@@H]3O)[C@H](O)[C@H]2NC(C)=O)[C@H](O)[C@H]1NC(C)=O)C(=O)NCC(=O)O)C(C)C` [Example 49, 18,36Cys GLP-1-disialo] was tested, and the “effect of suppressing rise” value ([1]; 0.9 nmol/kg intraperitoneal) was “almost equivalent to that of the GLP-1 at a dose of 9 nmol/kg”, the “effect of suppressing rise” value [1, 3] was “effect almost equivalent to that of the 36Cys GLP-1-disialo” and the “activity of suppressing rise in blood-sugar levels in OGTT relative to GLP-1 (times)” value ([1]; from doses giving equivalent effect, GLP-1 at 9 nmol/kg) was “about 10 times”.
